From patent US20130252930A1 (BIOMARIN PHARMACEUTICAL INC., priority 2010, published 2013)
Where two headings read alike, the source gives them in different places. Values belong to the compound of their own block, whether it stands above or below them.

Tests used:
[1] = biological target: T1, Cyp21 enzyme (Human HEK 293-Cyp21 stable transfected cells) (Homo sapiens, UniProt P08686); experiment: CYP21-HEK293 enzymatic assay (% inhibition at 100 nM) (Biological Example 10); assay type: cell-based; conditions: HEK 293-Cyp21 cells
T1 construct: expressed in transfected cells
T1 sequence (P08686 1-495): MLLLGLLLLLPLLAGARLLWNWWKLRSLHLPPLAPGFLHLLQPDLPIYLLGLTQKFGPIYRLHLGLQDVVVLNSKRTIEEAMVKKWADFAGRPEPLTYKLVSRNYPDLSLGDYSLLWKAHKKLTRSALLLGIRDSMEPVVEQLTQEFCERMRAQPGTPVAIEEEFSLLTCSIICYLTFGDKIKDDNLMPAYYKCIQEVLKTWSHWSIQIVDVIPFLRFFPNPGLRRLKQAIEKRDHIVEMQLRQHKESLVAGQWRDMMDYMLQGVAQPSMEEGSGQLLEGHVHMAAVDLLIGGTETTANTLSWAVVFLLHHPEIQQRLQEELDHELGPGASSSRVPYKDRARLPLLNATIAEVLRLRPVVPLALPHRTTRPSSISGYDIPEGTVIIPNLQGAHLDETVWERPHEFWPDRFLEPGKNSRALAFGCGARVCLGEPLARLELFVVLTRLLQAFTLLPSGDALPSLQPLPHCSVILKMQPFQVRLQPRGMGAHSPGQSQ
Method: Proceeding using methods similar to those described in Biological Example 11, the percent inhibition at 100 nM was measured.
This assay was used to determine compound activity against Cyp21 enzyme. Human HEK 293-Cyp21 stable transfected cells (maintained in complete growth media DMEM+10% FBS, supplemented with 125 ug/mL Hygromycin) were seeded in a 96-well plate at 20,000 cells/well/100 uL in DMEM plus 10% FBS and allowed to attach overnight. The next day, 20 μL medium was carefully removed and 10 μL of 10× pre-made compounds in DMEM+10% FBS+10% methanol was transferred to the wells to final concentrations of 1000, 100, 10, 1, or 0.1 nM. Mock treatment was 1% methanol in growth media and the cells were left at 37° C., 5% CO2 for 5 hr. After the incubation, 10 μL of substrate progesterone (Sigma) was added to the wells to make a final concentration of 10 μM. The cells were incubated the cells at 37° C. for 20 hr. At the end of incubation, 90 μL of conditioned media was removed to measure DOC level by ELISA.
Preparation of the DOC ELISA: 100 μL of coating buffer (0.025M PBS pH 7.4) containing 200 ng/mL DOC-3-carboxymethyloxime-BSA (Steraloids. inc, Cat#3469-000) was added to each well of a 96-well plate and incubated overnight at 4° C. The next day, the plates were washed twice with 250 μl of wash solution (0.015M PBS pH 7.4 containing 0.05% Tween 20). After being washed, the wells were blocked with 250 μL blocking buffer (3% BSA in 0.025M PBS, pH 7.4) at 37° C. for 2 h. The plates were washed again 3 times as before, and then 90 μL of sample /standards (prepared in complete growth media) was added into the appropriate wells followed by 10 μL of antibody solution (1:450 rabbit anti-DOC in 0.6% BSA/PBS). The plates were incubated at room temperature for 2 h on a shaker. The contents of the wells were removed and the plate was washed 4 times. After the final wash, 100 μL of secondary antibody (1:12000 HRP-goat-anti-rabbit IgG conjugate 0.6% BSA/PBS) was added into each well. The plate was incubated at 30° C. for 45 min. The plate was washed again 4 times and 100 μL of TMB substrate solution was added to each well. The plate was incubated at room temperature for 10 min. 100 μL of stop solution was added to each well and the optical density was read at 450 nm.
The mean absorbance value for each sample was used to determine the corresponding concentration from the standard curve. Data was analyzed with “log(antagonist) vs response variable slope” under “non-linear regression analysis” using Prism5 software.

[2] = biological target: T2, CYP17 (human testicular microsome) (Homo sapiens, UniProt P05093); experiment: CYP17 enzymatic assay (% inhibition at 1 nM) (Biological Example 12); assay type: biochemical
T2 construct: using microsomal fraction from human testis (Celsis Cat #S00110) as the enzyme source; tissue Celsis S00110; host or cells: human testis microsomal fraction
T2 sequence (P05093 1-508): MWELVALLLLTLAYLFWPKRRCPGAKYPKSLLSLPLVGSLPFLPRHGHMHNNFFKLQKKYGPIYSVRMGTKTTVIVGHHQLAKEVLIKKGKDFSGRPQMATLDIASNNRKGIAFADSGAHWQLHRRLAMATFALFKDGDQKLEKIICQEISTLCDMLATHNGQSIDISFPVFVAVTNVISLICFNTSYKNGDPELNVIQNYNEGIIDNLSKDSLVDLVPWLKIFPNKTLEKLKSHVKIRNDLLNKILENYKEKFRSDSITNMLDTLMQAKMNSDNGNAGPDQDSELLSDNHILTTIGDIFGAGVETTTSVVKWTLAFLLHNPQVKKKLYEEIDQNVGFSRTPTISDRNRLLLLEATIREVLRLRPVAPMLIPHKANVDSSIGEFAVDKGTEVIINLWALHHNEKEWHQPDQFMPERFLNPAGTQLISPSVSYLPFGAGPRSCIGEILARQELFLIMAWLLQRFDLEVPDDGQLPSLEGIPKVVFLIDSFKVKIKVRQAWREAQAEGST

[3] = biological target: T2, CYP17 (human testicular microsome); experiment: CYP17 enzymatic assay (IC50) (Biological Example 4); assay type: biochemical; conditions: human testicular microsome
[4] = biological target: T2, CYP17 (human testicular microsome); experiment: CYP17 enzymatic assay (% inhibition at 10 nM), version 1 (Biological Example 5); assay type: biochemical
[5] = Human liver microsome stability assay (Biological Example 8b); conditions: liver microsomes, pH 7.4
[6] = biological target: T1, Cyp21 enzyme (Human HEK 293-Cyp21 stable transfected cells); experiment: CYP21-HEK293 enzymatic assay (IC50) (Biological Example 11); assay type: cell-based; conditions: HEK 293-Cyp21 cells; read-out: CYP21-HEK293 enzymatic assay IC50 (Biological Example No. 11)
[7] = 100 nM compound, read-out: Biological Example No. 10: CYP21-HEK293 percent inhibition at 100 nM
[8] = DHEA by ELISA, read-out: Biological Example No. 4: CYP17 enzymatic assay IC50
[9] = 10 nM compound, DHEA by ELISA, read-out: Biological Example No. 5: CYP17 percent inhibition at 10 nM (version 1)
[10] = read-out: CYP17 enzymatic assay IC50 (Biological Example No. 4)
[11] = compound at 100 nM, read-out: CYP21-HEK293 enzymatic assay % inhibition at 100 nM (Biological Example No. 10)
[12] = compound at 1 nM, read-out: CYP17 enzymatic assay % inhibition at 1 nM (Biological Example No. 12)
[13] = read-out: Biological Example No. 4: CYP17 enzymatic assay IC50
[14] = compound at 100 nM, read-out: Biological Example No. 10: CYP21-HEK293 enzymatic assay % inhibition at 100 nM

Structure (SMILES): C[C@]12CCC(=O)C=C1CCC1C2CC[C@]2(C)C(c3cccnc3)=CCC12 (stereo partly drawn) [B, (10R,13S)-10,13-dimethyl-17-(pyridin-3-yl)-6,7,8,9,10,11,12,13,14,15-decahydro-1H-cyclopenta[a]phenanthren-3(2H)-one, reference compound]
inhibition at 0.1 µM [1, 7]: ≥ 30%
inhibition at 0.001 µM ([2]; 1 nM compound, DHEA by ELISA, read-out: Biological Example No. 12: CYP17 percent inhibition at 1 nM): > 50%

IC50 [3, 8]: < 11 nM
inhibition at 0.01 µM [4, 9]: 50 to 80%
inhibition at 0.1 µM [1, 7]: < 30%
Structure (SMILES): Cc1cncc(C2=CC[C@H]3[C@@H]4CCC5=CC(=O)N(C)CC[C@]5(C)[C@H]4CC[C@]23C)c1 [Compound 54]

IC50 [3, 8]: < 11 nM
inhibition at 0.01 µM [4, 9]: 50 to 80%
inhibition at 0.1 µM [1, 7]: ≥ 30%
Structure (SMILES): COc1cncc(C2=CC=C3[C@@H]4CCC5=CC(=O)NCC[C@]5(C)[C@H]4CC[C@]23C)c1 [Compound 86, (5aR,7aS)-8-(5-methoxypyridin-3-yl)-5a,7a-dimethyl-4,5,5a,5b,6,7,7a,10b,11,12-decahydrocyclopenta[5,6]naphtho[2,1-c]azepin-3(2H)-one]

IC50 [3, 8]: < 11 nM
inhibition at 0.01 µM [4, 9]: > 80%
inhibition at 0.1 µM [1, 7]: ≥ 30%
half-life at 1 μM [5]: 1 to 50 min
Structure (SMILES): C[C@]12CCCC(=O)CC1=CCC1[C@@H]2CC[C@]2(C)C(n3ccnc3)=CC[C@@H]12 (stereo partly drawn) [Compound 107, (3aS,10aR,10bS,12aS)-1-(1H-imidazol-1-yl)-10a,12a-dimethyl-3,3a,3b,4,8,9,10,10a,10b,11,12,12a-dodecahydrocyclohepta[a]cyclopenta[f]naphthalen-7(6H)-one]

inhibition at 0.01 µM [4, 9]: > 80%
inhibition at 0.1 µM [1, 7]: ≥ 30%
half-life at 1 μM [5]: 1 to 50 min
Structure (SMILES): C[C@]12CCCC(=O)CC1=CC[C@@H]1[C@@H]2CC[C@]2(C)C(c3cnccn3)=CC[C@@H]12 [Compound 142, 10a,12a-dimethyl-1-(pyrazin-2-yl)-3,3a,3b,4,8,9,10,10a,10b,11,12,12a-dodecahydrocyclohepta[a]cyclopenta[f]naphthalen-7(6H)-one]

inhibition at 0.01 µM [4, 9]: 50 to 80%
inhibition at 0.1 µM [1, 7]: ≥ 30%
Structure (SMILES): CCc1cncc(C2=CC[C@H]3[C@@H]4CCC5=CC(=O)N(C)CC[C@]5(C)[C@H]4CC[C@]23C)c1 [Compound 145]

IC50 [3, 8]: < 11 nM
inhibition at 0.01 µM [4, 9]: > 80%
inhibition at 0.1 µM [1, 7]: ≥ 30%
half-life at 1 μM [5]: 1 to 50 min
Structure (SMILES): COc1cncc(C2=CC=C3[C@@H]4CCC5=CC(=O)N(C)CC[C@]5(C)[C@H]4CC[C@]23C)c1 [Compound 159]

inhibition at 0.01 µM [4, 9]: 50 to 80%
inhibition at 0.1 µM [1, 7]: < 30%
Structure (SMILES): Cc1cncc(C2=CC=C3[C@@H]4CCC5=CC(=O)N(C)CC[C@]5(C)[C@H]4CC[C@]23C)c1 [Compound 160]

IC50 [3, 10]: < 11 nM
inhibition at 0.01 µM ([4]; compound at 10 nM, read-out: CYP17 enzymatic assay % inhibition at 10 nM (Biological Example No. 5)): > 80%
inhibition at 0.1 µM [1, 11]: ≥ 30%
inhibition at 0.001 µM [2, 12]: 10 to 50%
Structure (SMILES): CN1CC[C@@]2(C)C(=CC1=O)CC[C@H]1C3=CC=C(c4cnccn4)[C@@]3(C)CC[C@@H]12 [Compound 184, (5aR,7aS)-3,5a,7a-trimethyl-8-(pyrazin-2-yl)-3,4,5,5a,5b,6,7,7a,11,12-decahydrocyclopenta[5,6]naphtho[1,2-d]azepin-2(10bH)-one]

Structure (SMILES): CON=C1C=C2CCC3C4=CC=C(c5cccnc5)[C@@]4(C)CCC3[C@@]2(C)CC1 (stereo partly drawn) [Compound 287, (10R,13S)-10,13-dimethyl-17-(pyridin-3-yl)-6,7,8,9,10,11,12,13-octahydro-1H-cyclopenta[a]phenanthren-3(2H)-one O-methyl oxime]
IC50 [3, 10]: < 11 nM
inhibition at 0.1 µM [1, 11]: ≥ 30%
IC50 [6]: > 100 nM
inhibition at 0.001 µM [2, 12]: 10 to 50%
half-life at 1 μM [5]: > 50 min

Structure (SMILES): C[C@]12CCC3C(CCC4=CC(=NO)CC[C@@]43C)C1=CC=C2c1cccnc1 (stereo partly drawn) [Compound 288, (10R,13S)-10,13-dimethyl-17-(pyridin-3-yl)-6,7,8,9,10,11,12,13-octahydro-1H-cyclopenta[a]phenanthren-3(2H)-one oxime]
IC50 [3, 10]: < 11 nM
inhibition at 0.1 µM [1, 11]: < 30%
inhibition at 0.001 µM [2, 12]: > 50%
half-life at 1 μM [5]: 1 to 50 min

Structure (SMILES): CC1CC2C3=CC=C(c4cncc(N)c4)[C@@]3(C)CCC2[C@@]2(C)CCC(=O)C=C12 (stereo partly drawn) [Compound 329, (10R,13S)-17-(5-aminopyridin-3-yl)-6,10,13-trimethyl-6,7,8,9,10,11,12,13-octahydro-1H-cyclopenta[a]phenanthren-3(2H)-one]
IC50 [3, 13]: < 11 nM
inhibition at 0.1 µM [1, 14]: < 30%

Structure (SMILES): C[C@]12CCC3C(CCC4=CC(=O)CC[C@@]43C)C1=CC=C2c1cncc(N)c1 (stereo partly drawn) [Compound 360, (10R,13S)-17-(5-aminopyridin-3-yl)-10,13-dimethyl-6,7,8,9,10,11,12,13-octahydro-1H-cyclopenta[a]phenanthren-3(2H)-one]
IC50 [3, 13]: < 11 nM
inhibition at 0.1 µM [1, 14]: < 30%

Structure (SMILES): C[C@]12CCC(=O)C=C1CC[C@@H]1[C@@H]2CC[C@]2(C)C(c3cccnc3)CC[C@@H]12 (stereo partly drawn) [Compound 419, (10R,13S)-10,13-dimethyl-17-(pyridin-3-yl)-6,7,8,9,10,11,12,13,14,15,16,17-dodecahydro-1H-cyclopenta[a]phenanthren-3(2H)-one]
inhibition at 0.1 µM [1, 11]: ≥ 30%
inhibition at 0.001 µM [2, 12]: 10 to 50%
